Results: patent publication US9872861B2, “Methods of treatment using selective Bcl-2 inhibitors” (AbbVie Inc., priority 2010, dated 2018)
pEC50, pKi: −log10 of the molar value. Like-named read-outs stand apart in the source and are kept apart here.

Columns and labels:
[1] = molecular target: Bcl-XL (Homo sapiens, UniProt Q07817); assay: TR FRET competitive binding affinity, Bcl-XL; settings: read-out: Target Affinity TR FRET, Bcl-XL
Protocol: A comparison of the binding affinity for each of the compounds was performed to determine target affinity, as measured by Time-Resolved Fluorescence Resonance Energy Transfer (TR FRET).

[2] = tested on: RS4;11 cells; assay: Cellular efficacy in Bcl-2 dependent tumor cell line RS4;11; assay type: cell-based, human; settings: Homo sapiens, RS4-11; 10% HS
[3] = tested on: H146 cells; assay: Cellular efficacy in Bcl-XL dependent tumor cell line H146; assay type: cell-based; settings: Homo sapiens, NCI-H146; 10% HS
[4] = tested on: peripheral blood immune cells; assay: Peripheral blood lymphocytes in C57BL/6 mice, Cell Dyn hematology analyzer; assay type: in vivo; settings: for inhibition in vivo at 100 mg/kg: Mus musculus, Lymphocyte
Protocol: The effect of the Bcl-2 selective/Bcl-XL sparing compounds on peripheral blood immune cells was also evaluated in C57BL/6 mice. Mice were treated four days with individual compounds (100 mg/kg, orally every day) and cell numbers were measured with a Cell Dyn hematology analyzer.

[5] = tested on: FL5.12-Bcl-2 cells; assay: Cellular efficacy in FL5.12 cells dependent on Bcl-2; assay type: cell-based, murine; settings: Mus musculus, 3% FBS
[6] = tested on: FL5.12-Bcl-XL cells; assay: Cellular efficacy in FL5.12 cells dependent on Bcl-XL; assay type: cell-based, murine; settings: Mus musculus, 3% FBS
[7] = 24 h, 1 oral dose of 100 mg/kg, read-out: Day 1 % Reduction vs. Vehicle
[8] = 96 h, 4 oral doses of 100 mg/kg, read-out: Day 4 % Reduction vs. Vehicle

Bcl-XL, sequence (Q07817 whole entry): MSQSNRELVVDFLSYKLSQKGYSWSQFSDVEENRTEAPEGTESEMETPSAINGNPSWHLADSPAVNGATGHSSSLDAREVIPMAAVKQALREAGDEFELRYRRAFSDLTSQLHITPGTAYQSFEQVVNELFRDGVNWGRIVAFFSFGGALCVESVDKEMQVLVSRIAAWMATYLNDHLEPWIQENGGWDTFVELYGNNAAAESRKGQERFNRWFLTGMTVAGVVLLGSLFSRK

pKi [1] | pEC50 [2] | pEC50 [3] | pEC50 [5] | pEC50 [6] | SMILES | Day 1 Lymphocytes ([4]; 1 oral dose of 100 mg/kg) | Day 4 lymphocytes ([4]; 4 oral doses of 100 mg/kg) | inhibition in vivo at 100 mg/kg [4, 7] | inhibition in vivo at 100 mg/kg [4, 8]
7.92 | 7.92 | 5.52 |  |  | CC1(C)CCC(CN2CCN(c3ccc(C(=O)NS(=O)(=O)c4ccc(OCC5(F)CCN(C6COC6)CC5)c(Cl)c4)c(Oc4cnc5[nH]ccc5c4)c3)CC2)=C(c2ccc(Cl)cc2)C1 [Compound 11, N-[(3-chloro-4-{[4-fluoro-1-(oxetan-3-yl)piperidin-4-yl]methoxy}phenyl)sulfonyl]-4-(4-{[2-(4-chlorophenyl)-4,4-dimethylcyclohex-1-en-1-yl]methyl}piperazin-1-yl)-2-(1H-pyrrolo[2,3-b]pyridin-5-yloxy)benzamide] | 1.76 ×10^6 | 1.71 ×10^6 | 73% | 80%
8.14 | 7.49 | < 5.30 | 8.92 | 7.15 | CC1(C)CCC(CN2CCN(c3ccc(C(=O)NS(=O)(=O)c4ccc(N[C@H]5CC[C@H](N6CCOCC6)CC5)c([N+](=O)[O-])c4)c(Oc4cnc5[nH]ccc5c4)c3)CC2)=C(c2ccc(Cl)cc2)C1 [Compound 4, Trans-4-(4-{[2-(4-chlorophenyl)-4,4-dimethylcyclohex-1-en-1-yl]methyl}piperazin-1-yl)-N-({4-[(4-morpholin-4-ylcyclohexyl)amino]-3-nitrophenyl}sulfonyl)-2-(1H-pyrrolo[2,3-b]pyridin-5-yloxy)benzamide] | 2.62 ×10^6 | 1.72 ×10^6 | 57% | 73%
8.03 | 8.57 | 6.03 |  |  | CC1(C)CCC(CN2CCN(c3ccc(C(=O)NS(=O)(=O)c4ccc(NC[C@H]5CN(C6CC6)CCO5)c([N+](=O)[O-])c4)c(Oc4cnc5[nH]ccc5c4)c3)CC2)=C(c2ccc(Cl)cc2)C1 [Compound 7, 4-(4-{[2-(4-chlorophenyl)-4,4-dimethylcyclohex-1-en-1-yl]methyl}piperazin-1-yl)-N-{[4-({[(2S)-4-cyclopropylmorpholin-2-yl]methyl}amino)-3-nitrophenyl]sulfonyl}-2-(1H-pyrrolo[2,3-b]pyridin-5-yloxy)benzamide] | 0.89 ×10^6 | 0.95 ×10^6 | 85% | 85%
7.21 | 7.46 | < 5.30 |  |  | CC1(C)CCC(CN2CCN(c3ccc(C(=O)NS(=O)(=O)c4ccc(OCC5(F)CCOCC5)c(Cl)c4)c(Oc4cnc5[nH]ccc5c4)c3)CC2)=C(c2ccc(Cl)cc2)C1 [Compound 15, N-({3-chloro-4-[(4-fluorotetrahydro-2H-pyran-4-yl)methoxy]phenyl}sulfonyl)-4-(4-{[2-(4-chlorophenyl)-4,4-dimethylcyclohex-1-en-1-yl]methyl}piperazin-1-yl)-2-(1H-pyrrolo[2,3-b]pyridin-5-yloxy)benzamide] | 1.85 ×10^6 | 1.65 ×10^6 | 72% | 81%
7.82 | 8.68 | 5.41 | 9.15 | 7.51 | CC1(C)CCC(CN2CCN(c3ccc(C(=O)NS(=O)(=O)c4ccc(OCC5(F)CCOCC5)c([N+](=O)[O-])c4)c(Oc4cnc5[nH]ccc5c4)c3)CC2)=C(c2ccc(Cl)cc2)C1 [Compound 16, 4-(4-{[2-(4-chlorophenyl)-4,4-dimethylcyclohex-1-en-1-yl]methyl}piperazin-1-yl)-N-({4-[(4-fluorotetrahydro-2H-pyran-4-yl)methoxy]-3-nitrophenyl}sulfonyl)-2-(1H-pyrrolo[2,3-b]pyridin-5-yloxy)benzamide] | 1.77 ×10^6 | 1.99 ×10^6 | 73% | 77%
